Reference: patent publication US8481551B2, “Gyrase and topoisomerase IV inhibitors” (Vertex Pharmaceuticals Incorporated, priority 2011, dated 2013)
Like-named read-outs stand apart in the source and are kept apart here.

How the values were obtained:
[1] = system: Haemophilus influenzae; assay: Gyrase MIC against Gram negatives, microdilution broth method (Protocol 2); format: cell-based; settings: Haemophilus influenzae Rd0894 (AcrA-)
[2] = system: Escherichia coli; assay: as above; format: cell-based; settings: Escherichia coli AG100 WT
[3] = Pharmacokinetics, rat oral study; format: in vivo, Sprague Dawley rats; settings: male, Sprague Dawley, label = analyte; for Cmax: read-out: Cmax/C0
Excerpt: Pharmacokinetic Data Analysis.
Statistical Data Analysis.
Plasma concentration vs. time data was subjected to noncompartmental pharmacokinetic (PK) analysis.

[4] = plasma, 30 mg/kg, Compound W dosed orally 30 mg/kg in 0.5% MC
[5] = plasma, 100 mg/kg, Compound W dosed orally 100 mg/kg in 0.5% MC
[6] = plasma, 300 mg/kg, Compound W dosed orally 300 mg/kg in 0.5% MC
[7] = plasma, 300 mg/kg, Compound W dosed orally 300 mg/kg in 20% CAPT, 1% HPMC-AS, 1% PVP

## CCNC(=O)Nc1nc2cc(-c3cnc(C(C)(C)OP(=O)([O-])[O-])nc3)c(F)c([C@H]3CCCO3)c2[nH]1.[Na+].[Na+] [Compound W, disodium (R)-2-(5-(2-(3-ethylureido)-6-fluoro-7-(tetrahydrofuran-2-yl)-1H-benzo[d]imidazol-5-yl)pyrimidin-2-yl)propan-2-yl phosphate]
[1]
  MIC: 0.25 µg/mL
[2]
  MIC: > 16 µg/mL
[3]; [4]
  Tmax: 3.3 h
  Cmax: 22 ng/mL
[3]; plasma, 30 mg/kg, Compound W dosed orally 30 mg/kg in 0.5% MC, read-out: AUC
  AUC: 178 ng·h/mL
[3]; [5]
  Tmax: 0.8 h
  Cmax: 21 ng/mL
[3]; plasma, 100 mg/kg, Compound W dosed orally 100 mg/kg in 0.5% MC, read-out: AUC
  AUC: 61 ng·h/mL
[3]; [6]
  Tmax: 1.2 h
  Cmax: 2330 ng/mL
[3]; plasma, 300 mg/kg, Compound W dosed orally 300 mg/kg in 0.5% MC, read-out: AUC
  AUC: 324 ng·h/mL
[3]; [7]
  Tmax: 1.8 h
  Cmax: 600 ng/mL
[3]; plasma, 300 mg/kg, Compound W dosed orally 300 mg/kg in 20% CAPT, 1% HPMC-AS, 1% PVP, read-out: AUC
  AUC: 2370 ng·h/mL

## CCNC(=O)Nc1nc2cc(-c3cnc(C(C)(C)O)nc3)c(F)c([C@H]3CCCO3)c2[nH]1 [Compound 23, 1-ethyl-3-[6-fluoro-5-[2-(1-hydroxy-1-methyl-ethyl)pyrimidin-5-yl]-7-[(2R)-tetrahydrofuran-2-yl]-1H-benzimidazol-2-yl]urea]
[3]; in vivo, 3 mg/kg, rat plasma, Compound W dosed orally 3 mg/kg in 0.5% MC, read-out: AUC
  AUC: 311 ng·h/mL
[3]; in vivo, 3 mg/kg, rat plasma, Compound W dosed orally 3 mg/kg in 0.5% MC
  Cmax: 117 ng/mL
[3]; in vivo, 30 mg/kg, rat plasma, Compound W dosed orally 30 mg/kg in 0.5% MC, read-out: AUC
  AUC: 22500 ng·h/mL
[3]; in vivo, 30 mg/kg, rat plasma, Compound W dosed orally 30 mg/kg in 0.5% MC
  Cmax: 2900 ng/mL
[3]; in vivo, 100 mg/kg, rat plasma, Compound W dosed orally 100 mg/kg in 0.5% MC, read-out: AUC
  AUC: 77100 ng·h/mL
[3]; in vivo, 100 mg/kg, rat plasma, Compound W dosed orally 100 mg/kg in 0.5% MC
  Cmax: 6600 ng/mL
[3]; in vivo, 300 mg/kg, rat plasma, Compound W dosed orally 300 mg/kg in 0.5% MC, read-out: AUC
  AUC: 223000 ng·h/mL
[3]; in vivo, 300 mg/kg, rat plasma, Compound W dosed orally 300 mg/kg in 0.5% MC
  Cmax: 11700 ng/mL
[3]; in vivo, 300 mg/kg, rat plasma, Compound W dosed orally 300 mg/kg in 20% CAPT, 1% HPMC-AS, 1% PVP, read-out: AUC
  AUC: 295000 ng·h/mL
[3]; in vivo, 300 mg/kg, rat plasma, Compound W dosed orally 300 mg/kg in 20% CAPT, 1% HPMC-AS, 1% PVP
  Cmax: 16200 ng/mL
[3]; plasma, 3 mg/kg, Compound W dosed orally 3 mg/kg in 0.5% MC, read-out: AUCextrap
  AUC: 314 ng·h/mL
[3]; plasma, 30 mg/kg, Compound W dosed orally 30 mg/kg in 0.5% MC, read-out: AUCextrap
  AUC: 22600 ng·h/mL
[3]; plasma, 100 mg/kg, Compound W dosed orally 100 mg/kg in 0.5% MC, read-out: AUCextrap
  AUC: 77400 ng·h/mL
